In US20120135078A1, “ANGINA TREATMENT” (University of Dindee, priority 2009, published 2012):

How the values were obtained:
[1] = tested on: patients with chronic stable angina; experiment: Haemodynamic responses during exercise testing
[2] = Serum analysis (biochemical data) in the cross-over study; type: in vivo, human; settings: mean ± SD; after allopurinol treatment; p<0.001 vs baseline and placebo
Protocol: (§1) Eligible participants were then randomised to either allopurinol up to 300 mg BID or matching placebo for 6 weeks. The dose of allopurinol started at 100 mg OD for the first week, 300 mg OD for the second week and 300 mg BID for the remaining treatment period.
(§2) A p value <0.05 was considered significant.

[3] = tested on: patients with chronic stable angina; experiment: Treadmill exercise tolerance test (full Bruce protocol), randomised double-blind placebo-controlled cross-over study; type: in vivo, human
Protocol: The trial was carried out at Ninewells Hospital, UK. It was approved by the Fife, Forth Valley and Tayside Research Ethics Committee and was conducted in accordance with the Declaration of Helsinki. Signed, written informed consent was obtained from each participant.
Individuals aged 18 to 85 years were eligible if they had angiographically documented coronary artery disease, a positive exercise tolerance test (ETT) and a history of symptoms of chronic, stable, effort-induced angina for ≧2 months. Concomitant antianginal medication was allowed.
Exclusion criteria included myocardial infarction ≧2 months, coronary revascularization (percutaneous or CABG) ≧6 months, Left Ventricular Ejection Fraction <45%, estimated GFR <45 ml/min, significant valvular pathology, already on allopurinol, atrial arrhythmias or ECG abnormalities interfering with ST-segment interpretation.
Eligible participants had to manifest ischaemia (ST depression ≧1mm compared to resting ECG) on both visits with a between visit difference in time to ST depression of less than 15%. Otherwise, a third ETT was performed and there had to be a difference of less than 15% between the second and third test.
as §1
The ECG analysis was performed by two independent observers who were both blind to the treatments. The results of each assessment were virtually identical.
as §2

[4] = cited from earlier work
[5] = tested on: angina patients; settings: references 1-7; cited from earlier work
[6] = mean ± SD, Stage 1 of Bruce protocol
[7] = median, after 6 weeks allopurinol up to 300 mg BID (600 mg/day) added to existing anti-anginal medication

**Q.** Which “systolic blood pressure change at the end of the first stage of the Bruce protocol” value ([1]; change from baseline, p=0.026 vs placebo) does the source give for `Oc1ncnc2[nH]ncc12` [Allopurinol, 1,5-dihydro-4H-pyrazolo[3,4-d]pyrimidin-4-one] here?
**A.** Its value is −6.1 mmHg.

**Q.** And the “HR Stage 1” value [1, 6]?
**A.** Its value is 95.6 ± 13.5 bpm.

**Q.** What about the “RPP (Rate Pressure Product) Stage 1” value [1, 6] of the same compound?
**A.** The value was 12756 ± 2798 bpm · mmHg.

**Q.** What about the “dBP Stage 1” value [1, 6] of the same compound?
**A.** The value was 71.7 ± 10.1 mmhg.

**Q.** And the “sBP Stage 1” value [1, 6]?
**A.** Its value is 135.5 ± 19.3 mmHg.

**Q.** What about the “HR Peak exercise” value ([1]; mean ± SD, peak exercise) of the same compound?
**A.** The value was 118.5 ± 15.2 bpm.

**Q.** And the “RPP (Rate Pressure Product) Peak Exercise” value ([1]; mean ± SD, peak exercise)?
**A.** Its value is 18842 ± 3791 bpm · mmHg.

**Q.** What about the “dBP Peak Exercise” value ([1]; mean ± SD, peak exercise) of the same compound?
**A.** Its value is 75.4 ± 11.9 mmhg.

**Q.** And the “sBP Peak exercise” value ([1]; mean ± SD, peak exercise)?
**A.** Its value is 158.7 ± 22.4 mmHg.

**Q.** What about the “HR Resting” value ([1]; mean ± SD, resting) of the same compound?
**A.** The value was 63.8 ± 8.6 bpm.

**Q.** And the “RPP (Rate Pressure Product) Resting” value ([1]; mean ± SD, resting)?
**A.** The value was 7910 ± 1577 bpm · mmHg.

**Q.** And the “dBP Resting” value ([1]; mean ± SD, resting)?
**A.** The value was 72.2 ± 9.9 mmhg.

**Q.** And the “sBP Resting” value ([1]; mean ± SD, resting)?
**A.** The value was 123.7 ± 16.2 mmHg.

**Q.** And the serum uric acid [2]?
**A.** Its serum uric acid is 0.14 ± 0.05 mmol/L.

**Q.** What about the “absolute increase in median time to ST depression” value ([3]; allopurinol vs baseline) of the same compound?
**A.** The value was 66 s.

**Q.** What about the “increase in median time to ST depression (percent)” value ([3]; allopurinol vs baseline) of the same compound?
**A.** The value was 28%.

**Q.** And the “median exercise time higher on allopurinol than on placebo or baseline” value ([3]; difference of medians)?
**A.** Its value is 86 to 92 s.

**Q.** And the “median exercise time higher on allopurinol than on placebo or baseline (percent)” value ([3]; difference of medians)?
**A.** Its value is 30%.

**Q.** What about the “increase in time to ST depression by geometric mean” value ([3]; geometric mean) of the same compound?
**A.** The value was 22%.

**Q.** And the “Time to ST Depression” value [3, 7]?
**A.** Its value is 298 s.

**Q.** And the “Total Exercise Time” value [3, 7]?
**A.** Its value is 393 s.

**Q.** And the “Time to Symptoms” value ([3]; median, after 6 weeks allopurinol up to 300 mg BID added to existing anti-anginal medication)?
**A.** Its value is 304 s.

**Q.** And the “solubility in chloroform and in ether” value ([4]; chloroform, ether)?
**A.** The value was “practically insoluble”.

**Q.** And the “solubility in dilute solutions of alkali hydroxides” value ([4]; dilute solutions of alkali hydroxides)?
**A.** The value was “dissolves”.

**Q.** And the “solubility in water and alcohol” value ([4]; water and alcohol)?
**A.** Its value is “only slightly soluble”.

**Q.** With `CC(C)NCC(O)COc1ccc(CC(N)=O)cc1` (stereo not shown) [atenolol] as the compound, how does the “increase in time to ST depression, comparable published figures” value [5] read?
**A.** The value was “around 50 seconds”.

**Q.** And the “increase in time to ST depression, comparable published figures (percent)” value (from here on “increase in time to ST depression … (percent)”) [5]?
**A.** Its value is 15%.

**Q.** Which “increase in time to ST depression, comparable published figures” value [5] does the source give for `COc1ccccc1OCC(O)CN1CCN(CC(=O)Nc2c(C)cccc2C)CC1` (stereo not shown) [ranolazine] here?
**A.** The value was “around 50 seconds”.

**Q.** What about the “increase in time to ST depression … (percent)” value [5] of the same compound?
**A.** The value was 15%.

**Q.** With `COc1cc2c(cc1OC)CC(=O)N(CCCN(C)C[C@H]1Cc3cc(OC)c(OC)cc31)CC2` [ivabradine] as the compound, how does the “increase in time to ST depression, comparable published figures” value [5] read?
**A.** Its value is 46 s.

**Q.** What about the “increase in time to ST depression … (percent)” value [5] of the same compound?
**A.** The value was 13.5%.
